Laboratory results reported in US5455240A, “Modulators of pneumococcal adhesion to cellular targets involving the platelet activating factor receptor, and uses thereof” (The Rockefeller University, priority 1994, dated 1995).

Columns and labels:
[1] = test system: human vein endothelial cells (EC); test: Pneumococcal adherence to human vein endothelial cell monolayers, resting or TNFα-stimulated; assay type: cell-based; conditions: for pneumococcal adherence to resting EC in presence of antagonist: 1 μM antagonist, without antagonist 240 ±15; for Number of pneumococci adherent to designated receptor on host cell: 2 mM sugar, adherence per 100 host cells without sugar minus with sugar
Experimental: (§1) FIG. 1. Adherence of pneumococci to cytokine-stimulated human cultured type II pneumocytes (A) and vascular endothelial cells (B). Monolayers in 60 well Terasaki dishes were stimulated with IL-1α (type II lung cells; 5 ng/ml, 4 h at 37° C.; Rozdzinski et al., 1993, J. Exp. Med. 178: 917) and TNFα (vascular endothelial cells; 10 ng/ml, 3 h at 37° C.; Elias et al., 1990, Am. J. Respir. Cell. Mol. Biol. 3: 13). Pneumococci R6 and AII were cultured for 18 h on trypticase soy agar containing 3% sheep blood, labelled with fluorescein isothiocyanate and adjusted to 10^5 -10^7 cfu/ml (Geelen et al., 1993, Infect. Immun. 61: 1538), and co-incubated with the monolayers. Control adherence in the absence of cytokine is indicated by a hatched line (-----). Bacteria adherent to cytokine-stimulated (.cndot.) and resting (.smallcircle.) monolayers were determined as the number of attached bacteria per 100 lung or endothelial cells. Results are the means ±SD for duplicate wells in at least six independent experiments.
(§2) FIG. 2. Effect of PAF receptor antagonists on pn[…] to IL-1α-stimulated cultured human type II lung cells (A) and TNFα-stimulated vascular endothelial cells (B). Cytokine stimulated monolayers were incubated (10 min, 37° C.) with either albumin buffer (--) or increasing concentrations of the PAF receptor antagonists L659,989 ( ) and WEB 2086 ( ) and R6 pneumococci (10^7 cfu/ml) allowed to adhere to the monolayers for 30 min at 37° C. Control adherence in the absence of cytokine stimulation is indicated by a horizontal dotted line (------). Adherent bacteria were determined as the number of attached bacteria per 100 lung or endothelial cells. Results are the means ±SD for duplicate wells in at least six independent experiments. *p<0.05 compared with cytokine-stimulation in the absence of antagonists.
(§3) The adherence of S. pneumoniae encapsulated strain AII (serotype 2) and the isogeneic unencapsulated strain R6 to human vein endothelial cells (EC) and type II lung epithelial cells (LC) was quantitated before and after stimulation of the eukaryotic cells with IL-1 or TNF. Adherence to EC was increased […] by TNFα stimulation (FIG. 1). […] (increase from 240 ±10 to 363 ±13 bacteria/100 EC; increase from 270 ±15 to 355 ±18 bacteria/100 LC). Adherence was not affected by the presence of a type II capsule. At an input concentration of 10^7 cfu/ml, adherence of AII and R6 to 100 TNFα-stimulated EC was 405 ±14 and 400 ±10, respectively.
(§4) The contribution of carbohydrate recognition to pn[…] to cytokine-stimulated EC and LC was tested using competition assays performed in the presence of monosaccharides (1-50 mM) or glycoconjugates (0.003-2 mM) the role of carbohydrate recognition in pn[…] is disclosed more fully in copending application Ser. No. 08/254,577, Attorney Docket No. 600-1-084, filed Jun. 6, 1994 by Tuomanen and Cundell, entitled "MODULATORS OF PN[…] TO PULMONARY AND VASCULAR CELLS AND DIAGNOSTIC AND THERAPEUTIC APPLICATIONS"; hereinafter Tuomanen and Cundell. Bacteria were pre-incubated for 15 min at room temperature with final concentrations of the sugars as stated, centrifuged (3,000 rpm, 3 min) to remove unbound sugar, resuspended to 1×10^7 cfu/ml in albumin buffer and added to the adherence assay. […] Adherence of bacteria lacking choline to activated cells in the presence and absence of GlcNAc was 121 ±11 and 119 ±5/100 EC and 137 ±7 and 135 ±13/100 LC, respectively.

[2] = test system: type II lung epithelial cells (LC); test: Pneumococcal adherence to human type II lung epithelial cell monolayers, resting or IL-1α-stimulated; assay type: cell-based; conditions: for pneumococcal adherence to resting LC in presence of antagonist: 1 μM antagonist, without antagonist 270 ±10; for Number of pneumococci adherent to designated receptor on host cell: 2 mM sugar, adherence per 100 host cells without sugar minus with sugar
Experimental: as §1, §2, §3, §4

[3] = test system: type II lung cells and vascular endothelial cells; test: Pneumococcal adherence to EC and LC, results stated for both cell types together; assay type: cell-based, human; conditions: for IC50: Homo sapiens, Endothelial cell, 0.5 h, activated cells (IL-1α-stimulated LC, TNFα-stimulated EC), R6 10^7 cfu/ml, 30 min, 37° C., read-out: ED50 of inhibition of pneumococcal adherence; for inhibition of adherence to resting cells by single sugars: resting EC and LC
Experimental: as §2
FIG. 4. Effect of simple sugars on adherence of R6 to resting and cytokine-stimulated human cultured type II pneumocytes (A) and vascular endothelial cells (B). R6 (10^7 cfu/ml) was exposed to various simple sugars (15 min, room temperature) and then co-incubated with either resting (.quadrature.) or cytokine-stimulated ( ) monolayers for 30 min. Pn[…] to a designated sugar was defined as bacterial adherence to 100 host cells in the absence of sugar-bacterial adherence to 100 host cells in the presence of sugar. Results are the means ±SD for duplicate wells in at least six independent experiments. Glc=D-glucose, Gal=D-galactose, Fuc=L-fucose, GalNAc=N-acetyl-D-galactosamine, GlcNAc=N-acetyl-D-glucosamine, Man=D-mannose, NANA=sialic acid, Lac=lactose and 2-ADGG=2-acetamido-2-deoxy-3-O-B-D-galactopyranosyl-D-galactopyranose.
as §4

PAF receptor [4] = biological target: T1, PAF receptor (Homo sapiens, UniProt P25105); test: Pneumococcal adherence to U937 and COS-7 cells transfected with PAF receptor; assay type: cell-based; set-up: pneumococcal adherence; conditions: for pneumococcal adherence to PAF receptor-transfected cells: transfected COS-7 and U937 cells, antagonists 1 μM (FIG. 3); for adherence of R6 to U937 cells in presence of glycoconjugate: PAF receptor-transfected U937, input 10^7 cfu/ml, 296 ±30 without glycoconjugates
T1 sequence (P25105 whole entry): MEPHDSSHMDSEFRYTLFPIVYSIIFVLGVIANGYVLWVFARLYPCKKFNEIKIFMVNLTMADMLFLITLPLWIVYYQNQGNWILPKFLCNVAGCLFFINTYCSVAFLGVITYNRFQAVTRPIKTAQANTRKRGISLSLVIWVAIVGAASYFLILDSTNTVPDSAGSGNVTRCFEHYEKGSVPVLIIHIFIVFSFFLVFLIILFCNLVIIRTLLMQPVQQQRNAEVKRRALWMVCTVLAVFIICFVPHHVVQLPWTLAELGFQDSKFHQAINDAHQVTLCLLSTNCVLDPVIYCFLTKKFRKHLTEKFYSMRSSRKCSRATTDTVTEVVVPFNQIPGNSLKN
Experimental: FIG. 3. Effect on pneumococcal adherence to PAF receptors of receptor deglycosylation, the antagonists WEB 2086 and L659,989 (1 μM) and removal of phosphorylcholine from the pneumococcal cell wall (Tuomanen et al., 1985, J. Infect. Dis. 151: 859).
Recently, the PAF receptor was cloned from human leukocytes and successfully transfected into kidney epithelial cells (Kunz et al, supra). To determine if pneumococci could directly adhere to PAF receptors, human U937 cells (ATCC CRL1593; embryonic kidney epithelial cells stably transfected with the SV40 large T-antigen) and COS-7 cells (ATCC CRL 1651; monkey kidney) were transfected with the human PAF receptor cDNA (Gerard and Gerard, 1994, J. Immunol 152: 793) or the cDNA containing a Flag construct (Kunz et al., supra) by electroporation (Kunz et al., supra) or the addition of cationic liposomes (Gerard and Gerard, supra). […] Controls cells were transfected with vector alone. Monolayers of transfected and control cells were prepared in 60-well Terasaki dishes. Monolayers of COS-7 and U937 cells are prepared in 48-well culture dishes using the methods previously described for EC and LC (Geelen et al., 1993, Infect. Immun. 61: 1538).

PAF receptor [5] = biological target: T1, PAF receptor; test: Activation of PAF receptor-transfected COS-7 cells, 3H incorporation in inositoltriphosphate (IP3); assay type: cell-based; set-up: IP3 (3H-inositol) response
Experimental: FIG. 6. Pneumococci activate the PAF receptor. COS cells in a monolayer were treated with control, platelet activating factor ([…]), pneumococci (10^8 bacteria/ml), ethanolamine-cultured pneumococci (10^8 bacteria/ml), PAF+L659,989, and pneumococci+L659,989. Activation was measured by detecting the level of incorporation of ^3 H in inositoltriphosphate, which is reported as the percentage above background .
Activation of COS-7 cells transfected with the PAF receptor was assayed. The cells were exposed to medium (control), platelet activating factor ([…]), pneumococci (10^8 bacteria/ml), and ethanolamine cultured pneumococci (10^8 bacteria/ml). Inhibition of activation by PAF and pneumococci with the PAF receptor antagonist L659,989 (2 μg/ml) was also measured. Cellular activation was measured by detecting incorporation of ^3 H in inositoltriphosphate (IP3).

PAF receptor [6] = biological target: T1, PAF receptor; set-up: IP3 (3H-inositol) response; conditions: Hwang and Lam, 1991; cited from earlier work
[7] = monosaccharides 1-50 mM (FIG. 4)

Question: What does the source list for `CCCOc1c(OC)cc([C@@H]2CC[C@@H](c3cc(OC)c(OC)c(OC)c3)O2)cc1S(C)(=O)=O` (relative stereo) [L659,989]?
Answer: pneumococcal adherence to resting EC in presence of antagonist ([1]; resting EC): 237 ±9 bacteria/EC; pneumococcal adherence to resting LC in presence of antagonist ([2]; resting LC): 272 ±8 bacteria; IC50 [3]: 50 nM; pneumococcal adherence to PAF receptor-transfected cells (PAF receptor [4]): inhibit pneumococcal adherence; inhibition of PAF-mediated activation (PAF receptor [5]; L659,989 2 μg/ml, PAF 100 mM): almost completely inhibited; inhibition of pneumococcal-mediated activation (PAF receptor [5]; L659,989 2 μg/ml, pneumococci 10^8 bacteria/ml): almost completely inhibited; oral activity (PAF receptor [6]): orally active

Question: For `O=C[C@@H](O)[C@@H](O)[C@H](O)[C@H](O)CO` [D-mannose], which “inhibition of adherence to resting cells by single sugars” value [3, 7] is on record?
Answer: effective in inhibiting adherence to resting cells

Question: Which “inhibition of adherence to resting cells by single sugars” value [3, 7] does the source give for `CC(=O)N[C@H]1C(O)O[C@H](CO)[C@H](O)[C@@H]1O` (stereo partly drawn) [GalNAc, N-acetyl-D-galactosamine] here?
Answer: effective in inhibiting adherence to resting cells

Question: Which “adherence of bacteria lacking choline to activated EC in presence of sugar” value ([1]; ethanolamine-grown pneumococci, activated EC) does the source give for `CC(=O)N[C@H]1C(O)O[C@H](CO)[C@@H](O)[C@@H]1O` (stereo partly drawn) [GlcNAc, N-acetyl-D-glucosamine] here?
Answer: 121 ±11 /100 EC

Question: And the “adherence of bacteria lacking choline to activated LC in presence of sugar” value ([2]; ethanolamine-grown pneumococci, activated LC, 135 ±13 without sugar)?
Answer: 137 ±7 /100 LC

Question: What about the “inhibition of adherence to activated cells by single sugars” value ([3]; cytokine-stimulated EC and LC, monosaccharides 1-50 mM (FIG. 4)) of the same molecule?
Answer: became effective in activated cells

Question: And the “decrease of pneumococcal adherence to transfected cells” value (PAF receptor [4]; transfected COS-7 and U937 cells (FIG. 3))?
Answer: about 40%

Question: Which “pneumococcal adherence to PAF receptor-transfected cells” value (PAF receptor [4]) does the source give for `CCCCCCCCCCCCCCCCOCC(COP(=O)([O-])OCC[N+](C)(C)C)OC(C)=O` (centres unmarked) [PAF, platelet activating factor] here?
Answer: inhibit pneumococcal adherence

Question: And the “3H incorporation in IP3 (receptor activation)” value (PAF receptor [5]; PAF 100 mM, transfected COS-7 cells (FIG. 6))?
Answer: significant ^3 H incorporation in IP3

Question: For `Cc1nnc2n1-c1sc(CCC(=O)N3CCOCC3)cc1C(c1ccccc1Cl)=NC2` [WEB 2086], which “pneumococcal adherence to resting EC in presence of antagonist” value ([1]; resting EC) is on record?
Answer: 224 ±12 bacteria/EC

Question: What about the “pneumococcal adherence to resting LC in presence of antagonist” value ([2]; resting LC) of the same molecule?
Answer: 264 ±8 bacteria

Question: And the IC50 [3]?
Answer: 10 nM

Question: What about the “pneumococcal adherence to PAF receptor-transfected cells” value (PAF receptor [4]) of the same molecule?
Answer: inhibit pneumococcal adherence

Question: For TNFα, which “increase of pneumococcal adherence to EC by cytokine stimulation” value ([1]; TNFα 10 ng/ml, 3 h (FIG. 1)) is on record?
Answer: ~ 70%

Question: For asialo-GM2, which “Number of pneumococci adherent to designated receptor on host cell” value (“Number of pneumococci adherent” for short) ([1]; EC + TNFα, control 415 ± 25) is on record?
Answer: 180 ± 13

Question: And the “Number of pneumococci adherent” value ([1]; resting EC, control 240 ± 10)?
Answer: 140 ± 12

Question: And the “Number of pneumococci adherent” value ([2]; LC + IL-1α, control 355 ± 18)?
Answer: 205 ± 9

Question: And the “Number of pneumococci adherent” value ([2]; resting LC, control 270 ± 15)?
Answer: 140 ± 10

Question: And the “adherence of R6 to U937 cells in presence of glycoconjugate” value (PAF receptor [4])?
Answer: 327 ±39

Question: Which “Number of pneumococci adherent” value ([1]; EC + TNFα, control 415 ± 25) does the source give for globoside here?
Answer: 200 ± 9

Question: What about the “Number of pneumococci adherent” value ([1]; resting EC, control 240 ± 10) of the same molecule?
Answer: 110 ± 8

Question: And the “Number of pneumococci adherent” value ([2]; LC + IL-1α, control 355 ± 18)?
Answer: 200 ± 11

Question: What about the “Number of pneumococci adherent” value ([2]; resting LC, control 270 ± 15) of the same molecule?
Answer: 140 ± 10

Question: And the “adherence of R6 to U937 cells in presence of glycoconjugate” value (PAF receptor [4])?
Answer: 318 ±30

B1: IL-1: interleukin-1, cytokine used to stimulate cells (protein, UniProt P01583 113-271, looked up)
Interleukin-1 alpha: SAPFSFLSNVKYNFMRIIKYEFILNDALNQSIIRANDQYLTAAALHNLDEAVKFDMGAYKSSKDDAKITVILRISKTQLYVTAQDEDQPVLLKEMPEIPKTITGSETNLLFFWETHGTKNYFTSVAHPNLFIATKQDYWVCLAGGPPSITDFQILENQA
Question: Which “pneumococcal adherence to EC after cytokine stimulation” value ([1]; IL-1 stimulation, resting 240 ±10) does the source give for B1 here?
Answer: 363 ±13 bacteria/100 EC

Question: And the “pneumococcal adherence to LC after cytokine stimulation” value ([2]; IL-1 stimulation, resting 270 ±15)?
Answer: 355 ±18 bacteria/100 LC
